Measured values published in US6433186B1, “Amidino derivatives and their use as thormbin inhibitors” (AstraZeneca AB, priority 2000, dated 2002).

Columns and labels:
[1] = Test E: Determination of Thrombin Time ex vivo (plasma concentration of thrombin inhibitor after oral or parenteral administration); type: in vivo, rat; conditions: conscious rats
Source text: Determination of Thrombin Time ex vivo
The inhibition of thrombin after oral or parenteral administration of the compounds of the invention, dissolved in ethanol:Solutol™:water (5:5:90), is examined in conscious rats which, one or two days prior to the experiment, are equipped with a catheter for blood sampling from the carotid artery. On the experimental day blood samples are withdrawn at fixed times after the administration of the compound into plastic tubes containing 1 part sodium citrate solution (0.13 mol per L) and 9 parts of blood. The tubes are centrifuged to obtain platelet poor plasma.
50 μL of plasma samples are precipitated with 100 μL of cold acetonitrile. The samples are centrifuged for 10 minutes at 4000 rpm. 75 μL of the supernatant is diluted with 75 μL of 0.2% formic acid. 10 μL volumes of the resulting solutions are analysed by LC-MS/MS and the concentrations of thrombin inhibitor are determined using standard curves.

[2] = Test G: Determination of in vitro Stability, rat liver microsomes; type: in vitro ADME, Sprague-Dawley rats; conditions: liver microsomes from rats, 37° C., up to 60 minutes
Description: (§1) Determination of in vitro Stability
(§2) Liver microsomes were prepared from Sprague-Dawley rats and human liver samples according to internal SOPs. The compounds were incubated at 37° C. at a total microsome protein concentration of 3 mg/mL in a 0.05 mol/L TRIS buffer at pH 7.4, in the presence of the cofactors NADH (2.5 mmol/L) and NADPH (0.8 mmol/L). The initial concentration of compound was 5 or 10 μmol/L. Samples were taken for analysis up to 60 minutes after the start of the incubation. The enzymatic activity in the collected sample was immediately stopped by adding 20% […] at a volume corresponding to 3.3% of the total sample volume. The concentration of compound remaining (FINAL CONC) in the 60 min. sample was determined by means of LCMS using a sample collected at zero time as reference (START CONC). The % of degraded thrombin inhibitor was calculated as: [formula]

[3] = Test G: Determination of in vitro Stability, human liver microsomes; type: in vitro ADME; conditions: liver microsomes from humans, 37° C., up to 60 minutes
Description: as §1, §2

SMILES | oral and/or parenteral bioavailability as the corresponding active inhibitor (free amidine) [1] | conversion to the corresponding active inhibitor (free amidine) [2] | conversion to the corresponding active inhibitor (free amidine) [3]
CC(=O)Nc1cc(Cl)cc([C@@H](O)C(=O)N2CC[C@H]2C(=O)NCc2ccc(C(N)=NOC(C)C)cc2)c1 [Example 6, Ph(3-Cl)(5-NHAc)-(R)CH(OH)C(O)-(S)Aze-Pab(OiPr)] | exhibit oral and/or parenteral bioavailability in the rat as the corresponding active inhibitor (free amidine) |  | 
CNc1cc(Cl)cc([C@@H](O)C(=O)N2CC[C@H]2C(=O)NCc2ccc(C(N)=NOC)cc2)c1 [Example 3, Ph(3-Cl)(5-NHMe)-(R)CH(OH)C(O)-(S)Aze-Pab(OMe)] | exhibit oral and/or parenteral bioavailability in the rat as the corresponding active inhibitor (free amidine) | converted to the corresponding active inhibitor (free amidine) | converted to the corresponding active inhibitor (free amidine)
